Reference: ChEMBL document CHEMBL1149689, “Pomiferin, histone deacetylase inhibitor isolated from the fruits of Maclura pomifera” (Bioorg Med Chem Lett, 2007)

What was measured:
PC-3 = experiment: cells; format: functional; details: Homo sapiens, PC-3, 21 h
Description: Growth inhibition of human PC3 cells after 21 hrs by MTT assay

HCT-15 = experiment: cells; format: functional; details: Homo sapiens, HCT-15, 21 h
Description: Growth inhibition of human HCT15 cells after 21 hrs by MTT assay

Histone deacetylase = experiment: Inhibition of HDAC in HeLa cells; format: cell-based, Homo sapiens
LOX IMVI = experiment: cells; format: functional; details: Homo sapiens, 21 h
Description: Growth inhibition of human LOX-IMVI cells after 21 hrs by MTT assay

MDA-MB-231 = experiment: cells; format: functional; details: Homo sapiens, MDA-MB-231, 21 h
Description: Growth inhibition of human MDA-MB-231 cells after 21 hrs by MTT assay

NCI-H23 = experiment: cells; format: functional; details: Homo sapiens, NCI-H23, 21 h
Description: Growth inhibition of human NCI-H23 cells after 21 hrs by MTT assay

in vitro = details: human, hepatocytes
Description: Growth inhibition of human hepatocytes after 21 hrs by MTT assay

ACHN = experiment: cells; format: functional; details: Homo sapiens, 21 h
Description: Growth inhibition of human ACHN cells after 21 hrs by MTT assay

SMILES | GI50 (PC-3) | GI50 (HCT-15) | IC50 (Histone deacetylase) | GI50 (LOX IMVI) | GI50 (MDA-MB-231) | GI50 (NCI-H23) | GI50 at 21 h (in vitro) | GI50 (ACHN)
CC(C)=CCc1c2c(c3occ(-c4ccc(O)cc4)c(=O)c3c1O)C=CC(C)(C)O2 [OSAJIN] | 12.3 µM | 9.65 µM | 6.53 µM | 11 µM | 11.3 µM | 12 µM | > 500 µM | 12.1 µM
CC(C)=CCc1c2c(c3occ(-c4ccc(O)c(O)c4)c(=O)c3c1O)C=CC(C)(C)O2 [POMIFERIN] | 3.95 µM | 1.32 µM | 1.05 µM | 3.34 µM | 2.92 µM | 5.14 µM | 123 µM | 3.18 µM
